These results are taken from patent publication US12102594B2, “Infusion bag of Midazolam for intravenous use” (Sun Pharmaceutical Industries Limited, priority 2019, dated 2024).

The conditions of data set [1]: cited from earlier work.
A short description of data set [2]: Packaging material screening: Assay of Midazolam HCL Injection in autoclaved and unautoclaved infusion containers. In kind it is physicochemical. The method, then: Manufacturing process: Bulk solution preparation: 80% of the batch size of water for injection (WFI) was collected at a temperature of 20° C. to 25° C. in stainless steel 316L manufacturing tank of suitable capacity. Nitrogen gas was purged to get dissolve oxygen content less than 1 mg/L (ppm), pressure of nitrogen gas and time of purging or flow rate of nitrogen gas were recorded. Sodium chloride was added and dissolved gradually followed by stirring for not less than 10 minutes to ensure complete solubilization and clarity of solution visually. While additional excipients were added as below, the purging was stopped. 1 w/w hydrochloric acid (35 mL/Kg) was added and stirred well for approximately 10 minutes. […] The pH was adjusted to 3.0±0.1 using sufficient quantity of 1 w/w hydrochloric acid and stirred for around 1 h after pH adjustment to ensure complete dissolution of drug, stabilization of pH and until the appearance of the solution was a clear colourless solution. The pH was adjusted at 3.4±0.2 using sufficient quantity of 1 w/w Sodium hydroxide solution, and the volume was made up with dissolved oxygen maintained WFI stored at 20° C. to 25° C. […]

Data set [3] is described as follows: Terminal sterilization in different packaging material: Midazolam potency by HPLC based assay. In kind it is physicochemical. The method, then: Method: Midazolam formulation samples (i) autoclaved and (ii) unautoclaved, were stored in different packaging materials, i.e. glass bottle, IC-H-AE-1, IC-S, IC-S′ and IC-PHC. Initial potency of Midazolam in such samples was tested using an HPLC based assay method.

Data set [4] can be described thus: Adsorption behaviour of Midazolam in different bags at variable fill volume (HPLC assay). Particulars: 1 mg/mL, fill volumes 10, 20, 30, 40 ml. The class given is physicochemical. On the procedure: Method: Adsorption behaviour of Midazolam in different bags (IC-S′, IC-S and IC-PHC) was evaluated at four variable fill volumes, i.e. 10 ml, 20 ml, 30 ml and 40 ml. The assay values of autoclaved samples of Midazolam formulation were evaluated using an HPLC based assay method. […] At lowest fill volume, surface area to volume ratio was high resulting higher adsorption of API on contact layer of infusion bags. As fill volume increases surface area to volume ratio decreases leads to lower adsorption and higher assay values. This confirmed the physical adsorption of Midazolam in IC-S infusion bags. […] This also ruled out the possibility of Midazolam adsorption in IC-PHC infusion bags.

Data set [5] in a line: Potency loss at lower concentration 0.2 and 0.5 mg/mL in different infusion bags (HPLC assay). In kind it is physicochemical. On the procedure: Method: Loss of potency of Midazolam was assessed using an HPLC based assay method for (i) autoclaved and (ii) unautoclaved formulations (0.2 mg/ml and 0.5 mg/ml) in glass bottle, IC-S infusion bag, IC-S′ infusion bag and IC-PHC infusion bag.

On to `Cc1ncc2n1-c1ccc(Cl)cc1C(c1ccccc1F)=NC2.Cl` [Midazolam hydrochloride, 8-chloro-6-(2-fluorophenyl)-1-methyl-4H-imidazo[1,5-a][1,4] benzodiazepine hydrochloride], for which the “period over which diluted preparation was stable” value in data set [1] (0.5 mg/ml, diluted with 5% dextrose solution and 0.9% sodium chloride, polyolefin bags, dark, room temperature (Hagan et al.)) is 30 days. Besides, in data set [1] (1 mg/ml diluted with 5% dextrose, polyvinyl chloride and polyolefin bags, regardless of storage conditions (Karlage et al.)), the “period over which diluted solution remained stable” value was “about 27 days”.
Regarding `Cc1ncc2n1-c1ccc(Cl)cc1C(c1ccccc1F)=NC2` [Midazolam], the period of stability result in data set [1] (1 mg/ml in 0.9% sodium chloride, polyvinyl chloride bags, fluorescent light, room temperature (McMullin et al.)) was “about 10 days”. In data set [2] (cyclo-olefin polymer or co-polymer as innermost layer of the infusion container), the “loss in assay or content upon autoclaving and long term storage” value is “substantially no loss in assay”. The “loss of assay percentage immediately after autoclaving” value in data set [2] (infusion bags with inner layer of low density polyethylene, polypropylene, polyolefin copolymer or ethylene propylene copolymer) was “significant loss of assay percentage”. Moreover, the Midazolam potency loss result in data set [3] (IC-H-AE-1 infusion bags) is recorded as “Potency loss was also not observed”. Further, the “Midazolam potency, autoclaved vs un-autoclaved” value in data set [3] (IC-PHC infusion bags) is recorded as “no significant change”. Further, the “Midazolam potency after autoclaving” value in data set [3] (IC-S and IC-S′ infusion bags) is “found to decrease after autoclaving”. Also, the “impact of fill volume on potency” value in data set [4] (IC-PHC infusion bags) was “no impact of fill volume on potency”. For the same compound, in data set [4] (IC-S infusion bags), the “assay of autoclaved sample vs fill volume” value is “increasing trend with increasing fill volume”. The potency loss entry in data set [5] (IC-PHC infusion bags, 0.2 and 0.5 mg/mL) is reported as “no potency loss”; in data set [5] (IC-PHC infusion containers, 0.2 mg/mL), “no potency loss”; in data set [5] (IC-PHC infusion containers, 0.5 mg/mL), “no potency loss”; in data set [5] (IC-S and IC-S′ infusion bags, 0.2 and 0.5 mg/mL), “significant potency loss”.
